In brackets after ≈: the same amount, converted by molar mass.

One assay has as its system Aspergillus. Briefly: Antimicrobial activity against Aspergillus. The assay is classed as functional.
The test system of assay [1] is Cryptococcus neoformans. Briefly: Antifungal activity against Cryptococcus neoformans assessed as fungal growth inhibition. It counts as functional.
The subject of assay [2] is Candida albicans. Briefly: Antifungal activity against Candida albicans ATCC76615 by atomatic microplate reader analysis. It counts as functional.
Assay [3] deals with Kluyveromyces marxianus. Briefly: Antifungal activity against clinical strain Candida pseudotropicalis by atomatic microplate reader analysis. It counts as functional.
The test system of another assay is Candida parapsilosis. The assay can be described thus: Antifungal activity against clinical strain Candida parapsilosis by atomatic microplate reader analysis. To be noted: Lodderomyces parapsilosis. The assay is classed as functional.
Assay [4] relates to Nannizzia gypsea. The assay can be described thus: Antifungal activity against Microsporum gypseum ATCC31388 by atomatic microplate reader analysis. It counts as functional.
Assay [5] relates to Candida albicans. Briefly: Antifungal activity against Candida albicans. The assay is classed as functional, organism-based.
Assay [6] relates to Trichophyton rubrum. The assay can be described thus: Antimicrobial activity against Trichophyton rubrum. It counts as functional, organism-based.
Assay [7] deals with Cryptococcus neoformans. The assay can be described thus: Antifungal activity against Cryptococcus neoformans var. grubii assessed as fungal growth inhibition. The assay is classed as functional.
The subject of assay [8] is Candida albicans. Briefly: Antifungal activity against amphotericin-B-resistant Candida albicans assessed as zone of inhibition 1 ug/disk. The assay is classed as functional. To be noted: dose 1 µg.
In assay [9] the test system is Candida albicans. Briefly: Antifungal activity against wild type Candida albicans. It counts as functional, organism-based.
Assay [10] concerns Candida albicans. Briefly: Antifungal activity against amphotericin-B-resistant Candida albicans. The assay is classed as functional, organism-based.
The test system of a further assay is Lindra thalassiae. Briefly: Antifungal activity against Lindra thalassiae. It counts as functional, organism-based. The conditions noted are these: Lindriella thalassiae.
Another assay concerns Paradendryphiella salina. The assay can be described thus: Antifungal activity against Dendry-phiella salina. It counts as functional, organism-based.
For assay [11], the system named is Candida albicans. The assay can be described thus: Antimicrobial activity against Candida albicans assessed as inhibition of fungal growth. It counts as functional.
Assay [12] relates to Kluyveromyces marxianus. Briefly: Antifungal activity against Candida pseudotropicalis. The assay is classed as functional.
The subject of assay [13] is Trichophyton rubrum. Briefly: Antifungal activity against Trichophyton rubrum. The assay is classed as functional.
Assay [14] has as its system Nannizzia gypsea. The assay can be described thus: Antifungal activity against Microsporum gypseum. It counts as functional.
A further assay has as its system Fusarium graminearum. The assay can be described thus: Antimicrobial activity against Fusarium graminearum. It counts as functional.
In assay [15] the test system is Cryptococcus neoformans. The assay can be described thus: Antimicrobial activity against Cryptococcus neoformans. It counts as functional.
Assay [16] has as its system Candida albicans. Briefly: Antimicrobial activity against Candida albicans assessed as inhibition of microbial growth. It counts as functional.
Assay [17] deals with Candida tropicalis. Briefly: Antimicrobial activity against amphotericin-B-resistant Candida tropicalis. The assay is classed as functional.
Assay [18] has as its system Candida tropicalis. Briefly: Antimicrobial activity against nystatin-resistant Candida tropicalis. It counts as functional.
The next assay concerns Aspergillus niger. The assay can be described thus: Antifungal activity against Aspergillus niger. The assay is classed as functional.
Assay [19] has as its system Candida albicans. The assay can be described thus: Antimicrobial activity against Candida albicans assessed as reduction of microbial microbial growth. It counts as functional.
For assay [20], the system named is Candida tropicalis. Briefly: Antifungal activity against Candida tropicalis. The assay is classed as functional.
The next assay concerns Fusarium oxysporum. The assay can be described thus: Antifungal activity against Fusarium oxysporum. The assay is classed as functional.
The test system of a further assay is Cladosporium cucumerinum. The assay can be described thus: Antifungal activity against Cladosporium cucumerinum assessed as zone of inhibition. It counts as functional.

`COc1c(Br)cc(Br)cc1Oc1c(O)cc(Br)cc1Br`: in the assay on Aspergillus, the MIC – broadly, the lowest concentration found to suppress growth – came to 1.95 µg/mL (≈ 3.67 µM).
For the compound `CCCCC(C)C/C(=C/[C@@]1(CC)OC(=O)C[C@@H]1O)CC` (stereo partly drawn) [SIMPLEXOLIDE E], in the assay on Cryptococcus neoformans [1], the MIC turned out to be 3.66 µg/mL (≈ 13 µM).
For the compound `CO[C@@H]1[C@@H](O)[C@H](O[C@@H]2[C@H](O)[C@H](O[C@H]3[C@H](O)[C@@H](O)[C@H](O[C@H]4[C@H](OC5CC[C@]6(C)C7=C(CC[C@H]6C5(C)C)[C@]5(C)CC[C@H]6[C@]5(CC7)C(=O)O[C@@]6(C)C[C@H](O)CC(C)C)OC[C@@H](O[C@@H]5O[C@H](CO)[C@@H](O)[C@H](O)[C@H]5O)[C@@H]4O)O[C@@H]3CO)OC[C@H]2O)O[C@H](CO)[C@H]1O` (stereo partly drawn), the MIC in the assay with Candida albicans [2], in the assay with Kluyveromyces marxianus [3], against Candida parapsilosis and in the assay on Nannizzia gypsea [4] was 3.4 µg/mL (≈ 2.75 µM) throughout.
Regarding `C=C[C@@H]1C[C@H](C)C[C@H](C)[C@H]1c1c(O)ccn(O)c1=O`, the IC50 (as a rule, the point on the concentration scale where inhibition reaches its midpoint) in the assay with Candida albicans [5] was determined as 6.9 µg/mL (≈ 26.2 µM); in the assay on Trichophyton rubrum [6], 1.07 µg/mL (≈ 4.06 µM).
With `COC(=O)CCC[C@@H]1CC[C@@H](C#C/C=C/CCCCCC/C=C/Br)O1`, the minimal inhibitory concentration (MIC) in the assay on Cryptococcus neoformans [7] is 4 µg/mL (≈ 9.72 µM).
With `CCC(C)CC(C)[C@@H](O)[C@@H](C)C(=O)N[C@H](CN)C(=O)N[C@@H]([C@H](O)[C@H](O)C(=O)N[C@H](C(=O)N[C@H]1C(=O)N[C@H]([C@@H](C)O)C(=O)N[C@H](CCCN)C(=O)N[C@@H](CC(C)C)C(=O)N(C)[C@@H](CCC(N)=O)C(=O)NC(C(OC)C(N)=O)C(=O)N[C@H](CC(N)=O)C(=O)N(C)[C@@H](CC(C)C)C(=O)O[C@@H]1C)[C@@H](C)C(C)C(N)=O)C(C)(C)O` (stereo partly drawn), the “inhibition zone (IZ)” value with Candida albicans [8] stood at 8 mm.
For `CO[C@H]1C[C@H](CC[C@H](C)[C@H](O)[C@H](C)[C@H]2OC(=O)/C=C/C(C)=C/[C@@H](O)[C@H](OC)C[C@@H]3C=CC[C@@H](C[C@@H](OC)[C@@]4(CO4)[C@@H](OC)C[C@@H](OC)[C@@H]2C)O3)O[C@@H](C)C1`, the half-maximal inhibitory concentration (IC50) stood at 1.3 µg/mL (≈ 1.69 µM) with Candida albicans [9], 0.5 µg/mL (≈ 0.652 µM) with Candida albicans [10], 0.135 µg/mL (≈ 0.176 µM) in the assay with Lindra thalassiae and 0.034 µg/mL (≈ 0.0443 µM) in the assay on Paradendryphiella salina.
As to `C=C(C)CCC[C@]1(C)OC(=O)[C@]23[C@@H](O)C=C4[C@@H](CC[C@H]5C(C)(C)[C@@H](O[C@@H]6OC[C@@H](OS(=O)(=O)[O-])[C@H](O)[C@H]6O[C@@H]6O[C@H](C)[C@@H](O[C@@H]7O[C@H](CO)[C@@H](O)[C@H](O[C@@H]8O[C@H](CO)[C@@H](O)[C@H](OC)[C@H]8O)[C@H]7O)[C@H](O)[C@H]6O)CC[C@]45C)[C@]2(C)CC[C@@]31O.[Na+]`, the MIC in the assay on Candida albicans [11], in the assay with Kluyveromyces marxianus [12], in the assay on Trichophyton rubrum [13] and in the assay on Nannizzia gypsea [14] was 1 µg/mL throughout.
Regarding `CC(C)C1=C2N=C3OC=CC=C[C@@]34OC[C@H]3O[C@@]4(OC3(C)C)N2[C@@H](Cc2ccccc2)C(=O)N1`, the lowest concentration to inhibit growth with Fusarium graminearum (MIC) was 4 µg/mL (≈ 8.63 µM).
On to `CCCCCCCCC(O)C(O)CC/C=C\CCCCCC(O)C(N)CO` (stereo not drawn), for which the MIC in the assay on Cryptococcus neoformans [15] is 0.2 µg/mL (≈ 0.516 µM); with Candida albicans [16] it was 0.4 µg/mL; with Candida tropicalis [17], 0.4 µg/mL (≈ 1.03 µM); against Candida tropicalis [18] it was 0.4 µg/mL (≈ 1.03 µM).
As for `C/C(=C\[C@@H](O)C/C(C)=C/CCc1ccoc1)C/C=C/c1ccoc1`, the minimal inhibitory concentration (MIC) against Aspergillus niger was found to be 2 µg/mL (≈ 6.13 µM); in the assay with Candida albicans [19] it was 0.25 µg/mL; against Candida tropicalis [20] it was 2 µg/mL (≈ 6.13 µM); against Fusarium oxysporum it was 1 µg/mL (≈ 3.06 µM).
Consider `CO[C@@H]1[C@@H](O)[C@H](O[C@@H]2[C@@H](O)[C@H](O[C@H]3[C@H](O)[C@@H](O)[C@H](O[C@H]4[C@H](O[C@H]5CC[C@]6(C)C7C[C@H](O)[C@]89C(=O)O[C@@](C)(CCCC(C)C)[C@@]8(O)CC[C@@]9(C)C7=CC[C@H]6C5(C)C)OC[C@@H](OS(=O)(=O)[O-])[C@@H]4O)O[C@@H]3C)O[C@H](COS(=O)(=O)[O-])[C@H]2O)O[C@H](CO)[C@H]1O.[Na+].[Na+]` (stereo partly drawn), for which, in the assay on Cladosporium cucumerinum, the “inhibition zone (IZ)” value was determined as 8 mm.

These data come from ChEMBL document CHEMBL5260795, “Antifungal potential of marine natural products” (Eur J Med Chem, 2017).
